# Target: T1, IKZF2 (Homo sapiens, UniProt Q96SW2+Q9UKS7)
# T1 construct: CRISPR/Cas9—mediated insertion of the HiBiT peptide tag (Promega™) to the N-terminus of the IKZF2 gene locus; endogenous in cells; host or cells: MOLT4 cells, with CRISPR/Cas9 knock-in of HiBiT at the endogenous IKZF2 locus
# Experiment: HiBit-IKZF2 assay (HiBiT-Helios degradation in MOLT4 cells)
# Assay type: cell-based
# Conditions: for Dmax: MOLT-4, extent of degradation from highest to lowest concentration, 10 μM to 0.00026 μM, read-out: Dmax; for DC50: concentration at which 50% of HiBiT-Helios degradation was achieved
# Procedure: The HiBiT protein tagging system was applied to MOLT4 cells via a CRISPR/Cas9—mediated insertion of the HiBiT peptide tag (Promega™) to the N-terminus of the IKZF2 gene locus (Neon™ Transfection System). The resulting HiBiT-Helios stable cell line was treated with the following compounds in triplicates following a 13-point concentration scheme ranging from 10 μM to 0.00026 μM. At the indicated timepoints, the Nano-Glo® HiBiT Lytic Detection System (Promega™) was utilized for detecting bioluminescence of the HiBiT tag in treated cells: abundance of the tag is proportionate to the level of luminescence. Following normalization to DMSO, dose-response curves were plotted (GraphPad Prism) to determine the concentration points at which 50% of HiBiT-Helios degradation was achieved by each compound. The extent of degradation (range of luminescence) from the highest to lowest concentration points was calculated to determine the Dmax.
# T1 sequence (Q9UKS7 whole entry): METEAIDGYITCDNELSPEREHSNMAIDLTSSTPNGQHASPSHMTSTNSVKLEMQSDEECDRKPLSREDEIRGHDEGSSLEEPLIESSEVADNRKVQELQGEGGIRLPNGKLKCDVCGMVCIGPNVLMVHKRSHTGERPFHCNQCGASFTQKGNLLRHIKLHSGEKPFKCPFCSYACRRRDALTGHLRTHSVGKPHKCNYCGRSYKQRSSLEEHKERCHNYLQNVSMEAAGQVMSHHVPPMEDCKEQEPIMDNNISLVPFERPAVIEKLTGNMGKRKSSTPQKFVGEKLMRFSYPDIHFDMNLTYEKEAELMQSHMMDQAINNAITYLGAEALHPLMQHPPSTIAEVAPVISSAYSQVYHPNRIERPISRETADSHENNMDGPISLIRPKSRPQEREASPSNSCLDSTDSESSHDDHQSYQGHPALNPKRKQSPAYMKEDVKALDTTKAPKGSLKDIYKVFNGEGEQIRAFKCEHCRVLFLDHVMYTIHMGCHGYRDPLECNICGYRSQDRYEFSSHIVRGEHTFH
# T1 sequence (Q96SW2 whole entry): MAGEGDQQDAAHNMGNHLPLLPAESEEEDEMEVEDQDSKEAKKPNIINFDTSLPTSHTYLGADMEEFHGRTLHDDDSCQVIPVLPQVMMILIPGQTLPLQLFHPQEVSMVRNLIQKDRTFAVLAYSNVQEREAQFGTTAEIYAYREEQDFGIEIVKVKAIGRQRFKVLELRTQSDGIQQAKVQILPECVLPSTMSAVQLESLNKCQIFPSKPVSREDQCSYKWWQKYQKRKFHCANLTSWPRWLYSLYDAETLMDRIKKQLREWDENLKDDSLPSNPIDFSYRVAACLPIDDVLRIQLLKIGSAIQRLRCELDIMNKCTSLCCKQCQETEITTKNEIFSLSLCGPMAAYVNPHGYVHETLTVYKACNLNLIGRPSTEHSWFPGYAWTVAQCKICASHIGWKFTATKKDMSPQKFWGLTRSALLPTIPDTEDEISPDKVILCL
# T1 sequence (Q16531 whole entry partner): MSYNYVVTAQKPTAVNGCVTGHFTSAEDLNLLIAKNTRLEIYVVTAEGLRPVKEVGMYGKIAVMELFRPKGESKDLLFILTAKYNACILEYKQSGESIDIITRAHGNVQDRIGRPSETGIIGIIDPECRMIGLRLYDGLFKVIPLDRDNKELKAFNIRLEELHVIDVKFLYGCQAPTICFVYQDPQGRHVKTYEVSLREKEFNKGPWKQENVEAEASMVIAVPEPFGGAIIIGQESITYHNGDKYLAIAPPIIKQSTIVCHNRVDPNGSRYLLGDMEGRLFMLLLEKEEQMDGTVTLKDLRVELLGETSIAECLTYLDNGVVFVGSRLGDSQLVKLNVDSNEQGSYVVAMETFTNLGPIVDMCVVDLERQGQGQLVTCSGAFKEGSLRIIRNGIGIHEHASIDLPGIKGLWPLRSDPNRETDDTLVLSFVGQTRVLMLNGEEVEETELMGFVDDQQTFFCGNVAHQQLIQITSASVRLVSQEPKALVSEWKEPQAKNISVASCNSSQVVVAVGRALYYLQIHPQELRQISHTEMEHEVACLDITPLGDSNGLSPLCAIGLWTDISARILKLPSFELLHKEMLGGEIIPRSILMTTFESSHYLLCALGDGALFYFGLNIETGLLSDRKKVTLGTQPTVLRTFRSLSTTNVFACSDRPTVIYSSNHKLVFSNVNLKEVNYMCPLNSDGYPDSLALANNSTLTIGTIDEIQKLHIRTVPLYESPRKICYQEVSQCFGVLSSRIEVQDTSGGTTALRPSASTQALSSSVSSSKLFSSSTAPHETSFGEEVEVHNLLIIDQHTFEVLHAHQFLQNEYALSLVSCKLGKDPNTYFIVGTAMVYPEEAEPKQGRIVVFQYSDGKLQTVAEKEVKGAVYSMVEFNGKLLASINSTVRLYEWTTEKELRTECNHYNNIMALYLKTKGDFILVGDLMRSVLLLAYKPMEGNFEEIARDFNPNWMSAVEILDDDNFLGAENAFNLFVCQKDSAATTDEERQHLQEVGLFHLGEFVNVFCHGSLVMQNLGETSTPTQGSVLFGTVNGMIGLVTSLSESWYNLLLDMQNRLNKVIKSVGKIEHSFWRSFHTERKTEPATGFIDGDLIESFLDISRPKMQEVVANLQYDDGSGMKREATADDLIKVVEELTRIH
SMILES,Dmax [%],DC50 [nM]
O=C1CCC(N2Cc3cc(C4(O)CCN(Cc5ccccc5C(F)(F)F)CC4)ccc3C2=O)C(=O)N1 (stereo not shown) [Compound 249],> 70,< 10
O=C1CCC(N2Cc3cc(C4CCN(Cc5ccc(S(=O)(=O)Nc6ccccc6)cc5)CC4)ccc3C2=O)C(=O)N1 (stereo not shown) [Compound 91],50 to 70,< 10
Cc1ccccc1CN1CCC(O)(c2ccc3c(c2)CN(C2CCC(=O)NC2=O)C3=O)CC1 (stereo not shown) [Compound 265],> 70,< 10
O=C1CCC(N2Cc3cc(C4CCN(Cc5cccc6c5CN(c5ccccn5)C6=O)CC4)ccc3C2=O)C(=O)N1 (stereo not shown) [Compound 124],50 to 70,10 to 30
O=C1CCC(N2Cc3cc(C4(O)CCN(Cc5cccc6ccccc56)CC4)ccc3C2=O)C(=O)N1 (stereo not shown) [Compound 204],> 70,< 10
O=C1CCC(N2Cc3cc(C4CCN(Cc5ccc6c(c5)C(=O)N(c5ccccc5O)C6)CC4)ccc3C2=O)C(=O)N1 (stereo not shown) [Compound 218],> 70,10 to 30
O=C1CCC(N2Cc3cc(C4CCN(Cc5cccc(NC(=O)c6ccccc6)c5)CC4)ccc3C2=O)C(=O)N1 (stereo not shown) [Compound 50],50 to 70,10 to 30
Cc1ccc(N2Cc3ccc(CN4CCC(c5ccc6c(c5)CN(C5CCC(=O)NC5=O)C6=O)CC4)cc3C2=O)cc1 (stereo not shown) [Compound 216],50 to 70,< 10
O=C1CCC(N2Cc3cc(C4(O)CCN(Cc5ccccc5OC(F)F)CC4)ccc3C2=O)C(=O)N1 (stereo not shown) [Compound 248],> 70,< 10
O=C1CCC(N2Cc3cc(C4(O)CCN(Cc5ccc(C(F)(F)F)cc5)CC4)ccc3C2=O)C(=O)N1 (stereo not shown) [Compound 251],> 70,< 10
O=C1CCC(N2Cc3cc(C4CCN(Cc5ccnc(C(=O)Nc6ccccn6)c5)CC4)ccc3C2=O)C(=O)N1 (stereo not shown) [Compound 130],50 to 70,10 to 30
O=C1CCC(N2Cc3cc(C4CCN(Cc5ccc(C(=O)Nc6ccccc6)nc5)CC4)ccc3C2=O)C(=O)N1 (stereo not shown) [Compound 141],50 to 70,30 to 150
COc1ccc(CN2CCC(O)(c3ccc4c(c3)CN(C3CCC(=O)NC3=O)C4=O)CC2)cc1 (stereo not shown) [Compound 262],50 to 70,10 to 30
O=C1CCC(N2Cc3cc(C4(O)CCN(Cc5nc6ccccc6s5)CC4)ccc3C2=O)C(=O)N1 (stereo not shown) [Compound 260],50 to 70,10 to 30
O=C1CCC(N2Cc3cc(C4(O)CCN(Cc5cccc6cccnc56)CC4)ccc3C2=O)C(=O)N1 (stereo not shown) [Compound 280],> 70,10 to 30
O=C1CCC(N2Cc3cc(C4(O)CCN(Cc5ccc6ncccc6c5)CC4)ccc3C2=O)C(=O)N1 (stereo not shown) [Compound 279],> 70,< 10
O=C1CCC(N2Cc3cc(C4CCN(Cc5ccc6c(c5)C(=O)N(c5ccsn5)C6)CC4)ccc3C2=O)C(=O)N1 (stereo not shown) [Compound 223],50 to 70,10 to 30
Cc1cccc(CN2CCC(O)(c3ccc4c(c3)CN(C3CCC(=O)NC3=O)C4=O)CC2)c1 (stereo not shown) [Compound 264],> 70,< 10
O=C1CCC(N2Cc3cc(C4(O)CCN(Cc5cccc6scnc56)CC4)ccc3C2=O)C(=O)N1 (stereo not shown) [Compound 241],> 70,< 10
Cc1ccc(C)n1-c1ccc(CN2CCC(O)(c3ccc4c(c3)CN(C3CCC(=O)NC3=O)C4=O)CC2)cc1 (stereo not shown) [Compound 278],> 70,10 to 30
O=C1CCC(N2Cc3cc(C4(O)CCN(Cc5ccccc5OCc5ccccc5)CC4)ccc3C2=O)C(=O)N1 (stereo not shown) [Compound 276],50 to 70,< 10
O=C1CCC(N2Cc3cc(C4CCN(Cc5cccc(S(=O)(=O)N6CC7(COC7)C6)c5)CC4)ccc3C2=O)C(=O)N1 (stereo not shown) [Compound 62],50 to 70,30 to 150
O=C1CCC(N2Cc3cc(C4CCN(Cc5ccc6c(c5)C(=O)N(c5ccccn5)CCC6)CC4)ccc3C2=O)C(=O)N1 (stereo not shown) [Compound 184],50 to 70,10 to 30
O=C1CCC(N2Cc3cc(C4(O)CCN(Cc5ccc6ncn(-c7ccccn7)c(=O)c6c5)CC4)ccc3C2=O)C(=O)N1 (stereo not shown) [Compound 235],> 70,< 10
O=C1CCC(N2Cc3cc(C4CCN(Cc5ccccc5Nc5ccccn5)CC4)ccc3C2=O)C(=O)N1 (stereo not shown) [Compound 120],50 to 70,10 to 30
O=C1CCC(N2Cc3cc(C4(O)CCN(Cc5cccc(C(F)(F)F)c5)CC4)ccc3C2=O)C(=O)N1 (stereo not shown) [Compound 250],> 70,< 10
CN(c1ccccn1)S(=O)(=O)c1ccc(CN2CCC(c3ccc4c(c3)CN(C3CCC(=O)NC3=O)C4=O)CC2)cc1 (stereo not shown) [Compound 99],30 to 50,30 to 150
O=C1CCC(N2Cc3cc(C4CCN(Cc5ccc(S(=O)(=O)N6CCC7(CC7)C6)cc5)CC4)ccc3C2=O)C(=O)N1 (stereo not shown) [Compound 169],50 to 70,< 10

# The next lines start with the values.
Dmax [%],DC50 [nM],SMILES
30 to 50,10 to 30,O=C1CCC(N2Cc3cc(C4CCN(Cc5cccc(Nc6ccccn6)n5)CC4)ccc3C2=O)C(=O)N1 (stereo not shown) [Compound 101]
50 to 70,< 10,"O=C1CCC(N2Cc3cc(C4CCN(Cc5cccc(Nc6ccccc6)c5)CC4)ccc3C2=O)C(=O)N1 (stereo not shown) [Compound 46, 3-(1-oxo-5-(1-(3-(phenylamino)benzyl)piperidin-4-yl)isoindolin-2-yl)piperidine-2,6-dione]"
> 70,10 to 30,"O=C1CCC(N2Cc3cc(C4CCN(Cc5ccc6c(c5)C(=O)N(c5ccccc5)C6)CC4)ccc3C2=O)C(=O)N1 (stereo not shown) [Compound 146, 3-(1-oxo-5-(1-((3-oxo-2-phenylisoindolin-5-yl)methyl)piperidin-4-yl)isoindolin-2-yl)piperidine-2,6-dione]"
50 to 70,< 10,O=C1CCC(N2Cc3cc(C4CCN(Cc5cccc(N6Cc7ccccc7S6(=O)=O)c5)CC4)ccc3C2=O)C(=O)N1 (stereo not shown) [Compound 136]
30 to 50,30 to 150,O=C1CCC(N2Cc3cc(C4CCN(Cc5ccccc5N5Cc6ccccc6C5=O)CC4)ccc3C2=O)C(=O)N1 (stereo not shown) [Compound 117]
50 to 70,10 to 30,O=C1CCC(N2Cc3cc(C4CCN(Cc5ccc(Nc6ccccc6)nc5)CC4)ccc3C2=O)C(=O)N1 (stereo not shown) [Compound 142]
50 to 70,30 to 150,N#Cc1ccc(CN2CCC(c3ccc4c(c3)CN(C3CCC(=O)NC3=O)C4=O)CC2)nc1Nc1ccccc1 (stereo not shown) [Compound 186]
30 to 50,10 to 30,O=C1CCC(N2Cc3cc(C4CCN(Cc5cccc(N6CCCCS6(=O)=O)c5)CC4)ccc3C2=O)C(=O)N1 (stereo not shown) [Compound 97]
50 to 70,< 10,Cc1ccnc(Nc2cccc(CN3CCC(c4ccc5c(c4)CN(C4CCC(=O)NC4=O)C5=O)CC3)c2)n1 (stereo not shown) [Compound 229]
30 to 50,10 to 30,O=C1CCC(N2Cc3cc(C4CCN(Cc5cccc(N6CCCCC6=O)c5)CC4)ccc3C2=O)C(=O)N1 (stereo not shown) [Compound 161]
50 to 70,10 to 30,O=C1CCC(N2Cc3cc(C4CCN(Cc5cccc(N6Cc7cccnc7C6=O)c5)CC4)ccc3C2=O)C(=O)N1 (stereo not shown) [Compound 129]
50 to 70,30 to 150,O=C1CCC(N2Cc3cc(C4CCN(Cc5ccc(Nc6ccccn6)cc5)CC4)ccc3C2=O)C(=O)N1 (stereo not shown) [Compound 145]
50 to 70,< 10,CP(C)(=O)c1ccccc1NC(=O)c1cccc(CN2CCC(c3ccc4c(c3)CN(C3CCC(=O)NC3=O)C4=O)CC2)c1 (stereo not shown) [Compound 138]

# From patent publication US20230002397A1, “SMALL MOLECULE DEGRADERS OF HELIOS AND METODS OF USE” (DANA-FARBER CANCER INSTITUTE, INC., priority 2019, published 2023)
